Source: US20260216250A1, “Compositions and Methods for Treating a Neurologic Disease Using Dopaminergic Neurons with Enhanced Anti-inflammatory Activity” (Kenai Therapeutics Inc., priority 2023, published 2026)

How the values were obtained:
[1] = test system: iPS cells; assay: Differentiation of iPS cells into FOXA2+/LMX1+ cells or dopamine neurons; assay type: cell-based, human; details: increased concentrations, e.g. 2 μM as compared to 0.2 μM
Text: Disclosed is an in vitro method for preparing a cell composition comprising modified human cells that express both forkhead box protein A2 (FOXA2) and LIM homeobox transcription factor 1 (LMX1) (FOXA2^+/LMX1^+ cells) comprising culturing modified human pluripotent cells in the presence of the following signaling modulators: (a) a single inhibitor of Small Mothers Against Decapentaplegic (SMAD) signaling, (b) at least one activator of Sonic hedgehog (SHH) signaling, and (c) at least one activator of wingless (Wnt) signaling; and culturing said cells in the presence of said modulators for a period of time sufficient to provide a cell composition comprising said FOXA2^+/LMX1^+ cells. In some preferred embodiments, the LMX1 is LIM homeobox transcription factor 1 alpha (LMX1A). In some embodiments, the inhibitor of SMAD signaling is a BMP inhibitor such as, […]., at a concentration of from about 0.2 μM to about 4 μM, more preferably greater than 0.2 μM to about 4 μM, about 1 μM, 2 μM, 3 μM, 4 μM, or any range derivable therein), dorsomorphin, DMH-1, or noggin. […] In some embodiments, the BMP inhibitor is LDN-193189. The SMAD signaling inhibitor may be a TGFβ inhibitor (a TGFβ signaling pathway inhibitor) such as, for example, SB431542 (e.g., SB431542 present at a concentration of about 5-100, 20-60, 30-50 μM, or about 40 μM). […]

[2] = test system: rodent GSK3β homologs; details: cited from earlier work
[3] = target: Ago (Homo sapiens, UniProt Q9UKV8); details: cited from earlier work
Ago, sequence (Q9UKV8 whole entry): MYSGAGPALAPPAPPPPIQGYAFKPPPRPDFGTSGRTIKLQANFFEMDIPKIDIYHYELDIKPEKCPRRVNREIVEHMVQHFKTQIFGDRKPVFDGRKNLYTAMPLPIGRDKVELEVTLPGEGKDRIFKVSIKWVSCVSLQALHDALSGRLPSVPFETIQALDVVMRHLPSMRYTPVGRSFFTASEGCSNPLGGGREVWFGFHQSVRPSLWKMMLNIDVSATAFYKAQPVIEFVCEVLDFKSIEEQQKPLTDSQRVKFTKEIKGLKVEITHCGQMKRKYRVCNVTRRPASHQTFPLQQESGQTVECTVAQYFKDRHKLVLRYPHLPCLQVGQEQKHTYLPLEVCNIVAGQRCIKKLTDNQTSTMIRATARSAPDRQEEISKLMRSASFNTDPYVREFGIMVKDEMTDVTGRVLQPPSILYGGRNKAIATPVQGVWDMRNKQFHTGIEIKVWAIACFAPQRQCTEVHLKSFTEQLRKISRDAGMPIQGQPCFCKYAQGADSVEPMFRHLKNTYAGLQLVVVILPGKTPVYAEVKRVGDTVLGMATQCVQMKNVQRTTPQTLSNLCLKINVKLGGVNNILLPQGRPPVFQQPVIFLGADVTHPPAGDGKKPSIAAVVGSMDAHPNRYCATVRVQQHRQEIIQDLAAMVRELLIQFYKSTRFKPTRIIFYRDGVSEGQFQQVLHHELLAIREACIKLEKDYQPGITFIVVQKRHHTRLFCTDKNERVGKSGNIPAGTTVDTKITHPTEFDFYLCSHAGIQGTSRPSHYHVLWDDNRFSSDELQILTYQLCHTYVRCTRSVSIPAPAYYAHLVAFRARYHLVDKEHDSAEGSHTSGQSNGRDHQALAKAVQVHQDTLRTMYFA

For `c1ccc2c(-c3cnn4cc(-c5ccc(N6CCNCC6)cc5)cnc34)ccnc2c1` [LDN-193189, 4-(6-(4-(piperazin-1-yl)phenyl)pyrazolo[1,5-a]pyrimidin-3-yl) quinoline], the “differentiation of iPS cells into FOXA2+/LMX1+ cells or dopamine neurons” value [1] was “improved differentiation”.
In the case of `Cc1c[nH]c(-c2cnc(NCCNc3ccc(C#N)cn3)nc2-c2ccc(Cl)cc2Cl)n1` [CHIR99021, 6-(2-(4-(2,4-dichlorophenyl)-5-(4-methyl-1H-imidazol-2-yl)pyrimidin-2-ylamino)ethylamino) nicotinonitrile], the “IC50 values against rodent GSK3β homologs” value [2] is listed as “nanomolar”.
In the case of UUAAUGCUAAUCGUGAUAGGGGUU [miR-155-5p], the “Ago binding affinity of 5′ terminal UMP relative to the CMP nucleotide on the 5′ terminus of the miR-155-3p strand” value [3] is given as “approximately 20 times”.
